Results published in US20100196355A1, “Immunophilin Ligands and Methods for Modulating Immunophilin and Calcium Channel Activity” (Wyeth, priority 2007, published 2010).
Read-outs that look alike come from different tables or passages of the source.

Columns and labels:
[1] = tested on: cultured rat cortical neurons; test: Neuronal survival assay (neurofilament ELISA); type: cell-based; details: cultured rat cortical neurons
Protocol: Cultures were fixed for 30 min with 4% paraformaldehyde at 37° C. Nonspecific binding was blocked by incubating with PBS containing 0.3% Triton X-100 and 5% fetal bovine serum (FBS) for 45 min. Cultures were then incubated overnight at 4° C. with an anti-neurofilament (200 kD) monoclonal antibody (1:1000, clone RT-97, Chemicon, Temecula, Calif.). After washing, a peroxidase-conjugated secondary antibody (1:1000, Vector Labs, Burlingame, Calif.) was applied for 2 h. After three washes, the peroxidase substrate K-BlueMax (Neogen, Lexington, Ky.; Young et al., 1999) was added to the cultures and incubated for 10 min on an orbital shaker. The peroxidase substrate is highly soluble in the K-BlueMax solution. Optical density is then readily measured using a Molecular Devices Spectramax Plus colorimetric plate reader at 650
(§1) Briefly, cortical neuron cultures were prepared from embryonic day 15 (E15) rat embryos (Sprague-Dawley, Charles River Laboratories, Wilmington, Mass.). The embryos were collected, their brains were removed, and the cortices were dissected out in ice-cold phosphate-buffered saline (PBS) without Ca^2+ and Mg^2+. Dissected pieces of cortical tissue were pooled together and transferred to an enzymatic dissociation media containing 20 IU/ml papain in Earle's balanced salt solution (Worthington Biochemical, Freehold, N.J.) and incubated for 30 min at 37° C. After enzymatic dissociation, the papain solution was aspirated and the tissue mechanically triturated with a fire-polished Pasteur pipette in complete media [Neurobasal Medium with B-27 supplement (Gibco, Grand Island, N.Y.), 100 IU/ml penicillin, 100 μg/ml streptomycin, 3.3 μg/ml aphidicolin, 0.5 mM glutamate] containing 2,000 IU/ml DNase and 10-mg/ml ovomucoid protease inhibitor.

His6-tagged FKBP12 = His6-tagged FKBP12 (Homo sapiens, UniProt P62942); test: [3H]-FK506 binding on Ni-chelated FLASH plate
Sequence of His6-tagged FKBP12 (P62942 whole entry): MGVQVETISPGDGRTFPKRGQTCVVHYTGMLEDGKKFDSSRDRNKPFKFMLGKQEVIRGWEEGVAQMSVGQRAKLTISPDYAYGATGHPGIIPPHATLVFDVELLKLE
Protocol: (§2) Reactions were carried out in triplicate at 25° C. for 30 min. Kd were calculated using methods described by Carreras (Anal. Biochem. 298, 57-61 (2001)).

F-11 cells = test: Neurite outgrowth of F-11 cells (neurofilament ELISA); type: cell-based, rat and mouse hybrid
Protocol: Cells were fixed with 4% paraformaldehyde for 30 min at 37° C. Nonspecific binding was blocked by incubating with PBS containing 0.3% Triton X-100 and 5% fetal bovine serum (FBS) for 45 min. […] After washing, a peroxidase-conjugated anti-mouse secondary antibody (1:1000) was applied for 2 h. After three washes, the peroxidase substrate K-BlueMax was added to the cultures and incubated for 10 min. Optical density was determined at 650 nm.

cortical neurons = test: Neurite outgrowth in cortical neurons; type: cell-based, rat
Protocol: Cortical neurons were fixed using 2% paraformaldehyde for 5 min followed by 4% paraformaldehyde for 5 min. Cells were incubated in blocking solution (0.2% Triton-X+1.5% normal goat serum in PBS) followed by primary (anti-neuronal class III β-tubulin (TUJ1) (Covance Innovative Antibodies, Berkeley, Calif.) and secondary antibody (Alexa Fluor 488 goat anti-mouse) (Molecular Probes, Carlsbad, Calif.). Each step was performed at room temperature for 1 hr. Total neurite outgrowth for each condition was analyzed using the Neuronal Profiling Bioapplication on an ArrayScan HCS Reader (Cellomics, Pittsburgh, Pa.).
as §1

His6-CACNB1:TGG548TAA = target: T1, His6-CACNB1:TGG548TAA (Homo sapiens, UniProt Q02641); test: Protein fluorescent quenching; type: binding; details: compound 1 μM, protein 0-8 μM
T1 construct: His6 (N); made in house
T1 sequence (Q02641 1-547 limits assumed): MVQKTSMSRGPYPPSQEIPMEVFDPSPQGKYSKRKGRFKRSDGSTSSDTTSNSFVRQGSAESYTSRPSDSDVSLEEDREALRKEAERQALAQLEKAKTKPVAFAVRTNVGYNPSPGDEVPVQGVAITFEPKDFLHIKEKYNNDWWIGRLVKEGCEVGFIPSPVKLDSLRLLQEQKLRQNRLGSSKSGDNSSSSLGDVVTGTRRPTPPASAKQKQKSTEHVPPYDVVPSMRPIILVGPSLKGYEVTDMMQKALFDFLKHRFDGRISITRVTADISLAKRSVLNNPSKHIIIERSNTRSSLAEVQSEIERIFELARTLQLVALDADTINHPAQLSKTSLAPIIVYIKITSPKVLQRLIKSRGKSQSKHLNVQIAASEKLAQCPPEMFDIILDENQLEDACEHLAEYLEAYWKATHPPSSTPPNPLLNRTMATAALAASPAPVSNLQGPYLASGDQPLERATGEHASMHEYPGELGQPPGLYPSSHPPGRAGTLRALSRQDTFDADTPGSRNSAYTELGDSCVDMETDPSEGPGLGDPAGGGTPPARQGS
From the text: (§3) The His6-CACNB1: […] were generated from pDEST17-CACNB1 using QuikChange site-directed mutagenesis kit (Stratagene, LaJolla, Calif.). The His6 tagged protein was purified on a Ni-NTA column (Qiagen, Valencia, Calif.). […] J. Biol. Chem. 281, 14961-14970 (2006).

[2] = target: T2, FKBP52-rapamycin analogue I-Ca2+ channel β1 subunit complex (Mus musculus, UniProt P30416+Q8R3Z5); test: Co-immunoprecipitation of complex from F11 cell lysate; type: binding, rat and mouse hybrid
T2 construct: endogenous in cells; host or cells: F11 cell lysate
T2 sequence (P30416 whole entry): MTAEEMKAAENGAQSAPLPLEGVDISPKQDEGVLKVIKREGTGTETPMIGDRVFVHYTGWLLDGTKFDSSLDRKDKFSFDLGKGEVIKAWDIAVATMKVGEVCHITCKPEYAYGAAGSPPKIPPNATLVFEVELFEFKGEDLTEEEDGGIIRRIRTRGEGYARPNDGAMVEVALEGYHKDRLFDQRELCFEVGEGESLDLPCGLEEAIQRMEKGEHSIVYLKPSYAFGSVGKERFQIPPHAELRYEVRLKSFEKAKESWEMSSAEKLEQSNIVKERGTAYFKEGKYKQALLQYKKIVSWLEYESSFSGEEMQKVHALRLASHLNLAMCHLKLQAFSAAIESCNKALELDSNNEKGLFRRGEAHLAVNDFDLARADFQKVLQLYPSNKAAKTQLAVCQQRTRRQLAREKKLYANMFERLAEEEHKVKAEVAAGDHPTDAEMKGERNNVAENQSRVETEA
T2 sequence (Q8R3Z5 1-479 isoform Q8R3Z5-3): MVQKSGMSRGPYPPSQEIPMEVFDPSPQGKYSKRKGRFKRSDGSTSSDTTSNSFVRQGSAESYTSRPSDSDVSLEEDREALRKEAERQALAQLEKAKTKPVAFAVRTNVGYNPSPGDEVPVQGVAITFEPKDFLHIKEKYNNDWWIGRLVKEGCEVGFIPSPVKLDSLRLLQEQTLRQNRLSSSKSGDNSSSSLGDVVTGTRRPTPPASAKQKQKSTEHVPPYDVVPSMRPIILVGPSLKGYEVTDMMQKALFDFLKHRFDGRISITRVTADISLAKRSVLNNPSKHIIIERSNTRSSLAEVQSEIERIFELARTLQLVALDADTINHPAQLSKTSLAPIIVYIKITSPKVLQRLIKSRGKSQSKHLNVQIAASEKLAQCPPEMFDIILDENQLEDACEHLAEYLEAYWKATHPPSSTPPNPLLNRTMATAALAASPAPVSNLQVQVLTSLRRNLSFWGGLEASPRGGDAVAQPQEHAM
Protocol: Anti-FKBP52 antibody was added at 1:200 dilution to each aliquot and incubated at 4° C. for 5 h. Protein A beads ([…]) were then added to precipitate the anti-FKBP52-antibody-associated complex. The proteins immunoprecipitated on the beads were washed with PBS buffer, separated on 4-20% SDS-PAGE gel, transferred to PVDF, and immunoblotted with anti-Ca^2+ channel β1 subunit antibody (1:500 dilution) to detect the β1 subunit.

Human CD4+ T cells = test: Immunosuppression assay: IL-2 stimulated CD4+ T-cell proliferation; type: cell-based; details: up to 1 μM
Protocol: Human CD4^+ T cells were purified by negative selection from peripheral blood lymphocytes using RosetteSep as per manufacture's instructions (StemCell Technologies, Inc. Vancouver, British Columbia). Tosyl-activated magnetic microspheres (Dynal, Great Neck, N.Y.) were coated with anti-CD3 Ab (1 μg/10^7 microspheres), and anti-CD28Ab ([…]) as described in Blair et al. J. Immunol., 160:12, 1998. […] Protein-coated microspheres were added to purified CD4+T cells (2×10^6cells/mL, ratio 1 bead: 1 cell) and activated for 72 hours in RPMI, 10% fetal calf serum, 2 mM glutamine media. Cells were harvested, washed, and cultured overnight in fresh media and re-stimulated with IL-2 as described in Bennett et al., J. Immunol. 170:711, 2003. […] Seventy-two hours after culture re-stimulation, plates were pulsed with 1 μCi/well tritiated thymidine and incubated for a 6-16 hour period.

[3] = tested on: transient mid-cerebral artery occlusion model for ischemic stroke; details: cited from earlier work
CACNB1 = test: Affinity chromatography on Compound 2 matrix (SDS-PAGE); type: binding, human; details: protein retained on compound beads vs blank beads
From the text: as §3

His6-tagged FKBP52 = test: [3H]-FK506 binding on Ni-chelated FLASH plate; set-up: species or system human; details: for binding selectivity for FKBP52 versus FKBP12, higher than that of rapamycin: relative to rapamycin
Protocol: as §2

Structure (SMILES) | neuronal survival, neurofilament ELISA [1] | Kd (His6-tagged FKBP12) [nM] | neurite outgrowth in F-11 cells (F-11 cells) | neurofilament content, higher than 50 μM or no compound control (F-11 cells; 5 μM, 96 hrs) | neurite outgrowth in cortical neurons (cortical neurons) | protein fluorescent quenching (His6-CACNB1:TGG548TAA) | Ca2+ channel β1 subunit co-immunoprecipitated with FKBP52 ([2]; 5 μM) | Ca2+ channel β1 subunit co-immunoprecipitated with FKBP52 ([2]; 50 μM) | inhibition of IL-2 stimulated CD4+ T-cell proliferation (Human CD4+ T cells) | reduction of infarct volume ([3]; 10 mg/kg) [%] | reduction of infarct volume ([3]; 30 mg/kg) [%] | binding to CACNB1 (CACNB1) | Kd(FKBP12)/Kd(FKBP52) (His6-tagged FKBP52) | binding selectivity for FKBP52 versus FKBP12, higher than that of rapamycin (His6-tagged FKBP52) [fold] | binding selectivity for FKBP52 versus FKBP12, higher than that of rapamycin (His6-tagged FKBP52; listed as rapamycin analogue II)
CO[C@H]1C[C@@H]2CC[C@@H](C)[C@@](O)(O2)C(=O)C(=O)N2CCCCC2C(=O)O[C@H]([C@H](C)C[C@@H]2CC[C@@H](O)[C@H](OC)C2)CC(=O)[C@H](C)/C=C(\C)[C@@H](O)[C@@H](OC)C(=O)[C@H](C)C[C@H](C)C2C=C[C@H](/C=C/1C)ON2c1ccccc1 (stereo partly drawn) [Rapamycin analogue I, 9,27-dihydroxy-3-{2-[4-hydroxy-3-methoxycyclohexyl]-1-methylethyl}-10,21-dimethoxy-6,8,12,14,20,26-hexamethyl-37-phenyl-4,9,10,12,13,14,15,18,21,22,23,24,25,26,27,32,33,34,34a-nonadecahydro-3H-23,27-epoxy-18,15-(epoxyimino)pyrido[2,1-c][1,4]oxazacyclohentriacontine-1,5,11,28,29(6H, 31H)-pentone] | promote neuronal survival | 4.7 ± 0.4 | promote neurite outgrowth | 4-5 fold | promote neurite outgrowth | linear dose response curve | large amount | reduced the amount of precipitated β1 subunit | – | – | – | – | – | – | –
CO[C@H]1C[C@@H]2CC[C@@H](C)[C@@](O)(O2)C(=O)C(=O)N2CCCCC2C(=O)O[C@H]([C@H](C)C[C@@H]2CC[C@@H](O)[C@H](OC)C2)CC(=O)[C@H](C)/C=C(\C)[C@@H](O)[C@@H](OC)C(=O)[C@H](C)C[C@H](C)C2CC[C@H](/C=C/1C)ON2c1ccccc1 (stereo partly drawn) [Rapamycin analogue II, 9,27-dihydroxy-3-{2-[4-hydroxy-3-methoxycyclohexyl]-1-methylethyl}-10,21-dimethoxy-6,8,12,14,20,26-hexamethyl-37-phenyl-4,9,10,12,13,14,15,16,17,18,21,22,23,24,25,26,27,32,33,34,34a-henicosahydro-3H-23,27-epoxy-18,15-(epoxyimino)pyrido[2,1-c][1,4]oxazacyclohentriacontine-1,5,11,28,29(6H, 31H)-pentone] | – | – | – | – | – | – | – | – | no detectable inhibition | 24 | 23 | binds | 229 | 687 | at least 600 fold
